Test results reported in ChEMBL document CHEMBL1932956, “Combination of two chromophores: synthesis and PDT application of porphyrin-pentamethinium conjugate” (Bioorg Med Chem Lett, 2012).
Active and inactive are the calls of the source. No cut-off for these calls is given here.

Columns and labels:
HL-60 [1] = assay: Induction of apoptosis in human HL60 cells assessed as DNA fragmentation measured after 6 hrs following photo irradiation by trypan blue assay; assay type: functional, cell-based
HL-60 [2] = assay: Induction of apoptosis in human HL60 cells assessed as cell death measured after 24 hrs following photo irradiation by trypan blue assay; assay type: functional, cell-based
UB900518 = assay: Antitumor activity against human UB900518 cells xenografted in mouse assessed as tumor regression at 5 mg/kg followed by photo irradiation measured after 72 hrs; assay type: functional, organism-based; parameters: dose 5 mg/kg
HL-60 [3] = assay: Cytotoxicity against human HL60 cells assessed as cell viability; assay type: functional, cell-based

`CN(C)/C=C/C(=C\C=[N+](C)C)c1c2nc(c(C(/C=C/N(C)C)=C/C=[N+](C)C)c3ccc([nH]3)c(C(/C=C/N(C)C)=C/C=[N+](C)C)c3nc(c(C(/C=C/N(C)C)=C/C=[N+](C)C)c4ccc1[nH]4)C=C3)C=C2` was tested, and the Activity (HL-60 [1]) was “Active”, the Activity (HL-60 [2]) was “Active” and the Activity (UB900518) was “Active”. The IC50 (HL-60 [3]) was 3 µM.

`O=[N+]([O-])c1ccc(-[n+]2ccc(-c3c4nc(c(-c5cc[n+](-c6ccc([N+](=O)[O-])cc6[N+](=O)[O-])cc5)c5ccc([nH]5)c(-c5cc[n+](-c6ccc([N+](=O)[O-])cc6[N+](=O)[O-])cc5)c5nc(c(-c6cc[n+](-c7ccc([N+](=O)[O-])cc7[N+](=O)[O-])cc6)c6ccc3[nH]6)C=C5)C=C4)cc2)c([N+](=O)[O-])c1` was tested, and the Activity (HL-60 [1]) was “Active”, the Activity (HL-60 [2]) was “Active” and the IC50 (HL-60 [3]) was 3.4 µM.
